According to patent US20020082452A1, “alpha-sulfin-and alpha-sulfonamino acid amides” (priority 1998, published 2002):

Assays:
Format in all cases: in vivo
Plasmopara viticola = test: D-1: Action against Plasmopara viticola on vines (residual-protective and residual-curative action); conditions: vine seedlings, spray mixture 0.02% active ingredient, evaluated after 6 days at 95-100% relative humidity and 20° C.
Protocol: D-1: Action against Plasmopara viticola on Vines a) Residual-Protective Action
Vine seedlings are sprayed at the 4- to 5-leaf stage with a spray mixture (0.02% active ingredient) prepared from a wettable powder formulation of the test compound. After 24 hours, the treated plants are infected with a sporangia suspension of the fungus. Fungus infestation is evaluated after incubation for 6 days at 95-100% relative humidity and 20° C. […]
b) Residual-Curative Action
Vine seedlings are infected at the 4- to 5-leaf stage with a sporangia suspension of the fungus. After incubation for 24 hours in a humidity chamber at 95-100% relative humidity and 20° C., the infected plants are dried and sprayed with a spray mixture (0.02% active ingredient) prepared from a wettable powder formulation of the test compound. After the spray coating has dried, the treated plants are placed in the humidity chamber again. Fungus infestation is evaluated 6 days after infection. […] Compounds A1.02, A1.03, A1.04, A1.03, A1.5, A1.06, A1.07, A1.09, A1.10, A1.13, A1.14, A1.15, A1.16, A1.21, A1.23.

Phytophthora [1] = test: D-2: Action against Phytophthora on tomato plants (residual-protective and systemic action); conditions: spray mixture 0.02% active ingredient (sprayed or watered), evaluated after 4-5 days at 90-100% relative humidity and 20° C.
Protocol: D-2: Action Against Phytophthora on Tomato Plants
(§1) a) Residual-Protective Action
After a cultivation period of 3 weeks, tomato plants are sprayed with a spray mixture (0.02% active ingredient) prepared from a wettable powder formulation of the test compound. After 48 hours, the treated plants are infected with a sporangia suspension of the fungus. Fungus infestation is evaluated after incubation of the infected plants for 5 days at 90-100% relative humidity and 20° C.
After a cultivation period of 3 weeks, tomato plants are watered with a spray mixture (0.02% active ingredient based on the volume of the soil) prepared from a wettable powder formulation of the test compound. […] After 96 hours, the treated plants are infected with a sporangia suspension of the fungus. Fungus infestation is evaluated after incubation of the infected plants for 4 days at 90-100% relative humidity and 20° C. […] Compounds A1.02, A1.03, A1.04, A1.03, A1.05, A1.06, A1.07, A1.09, A1.10, A1.13, A1.14, A1.15, A1.16, A1.21, A1.23.

Phytophthora [2] = test: D-3: Action against Phytophthora on potato plants (residual-protective and systemic action); conditions: potato plants (Bintje variety), spray mixture 0.02% active ingredient (sprayed or watered), evaluated after 4 days at 90-100% relative humidity and 20° C.
Protocol: D-3 Action Against Phytophthora on Potato Plants
as §1
2-3 week old potato plants (Bintje variety) are sprayed with a spray mixture (0.02% active ingredient) prepared from a wettable powder formulation of the test compound. After 48 hours, the treated plants are infected with a sporangia suspension of the fungus. Fungus infestation is evaluated after incubation of the infected plants for 4 days at 90-100% relative humidity and 20° C.
2-3 week old potato plants (Bintje variety) are watered with a spray mixture (0.02% active ingredient based on the volume of the soil) prepared from a wettable powder formulation of the test compound. […] After 48 hours, the treated plants are infected with a sporangia suspension of the fungus. Fungus infestation is evaluated after incubation of the infected plants for 4 days at 90-100% relative humidity and 20° C. Fungal infestation is effectively controlled with compounds of Tables 1 to 37. Compounds A1.02, A1.03, A1.04, A1.03, A1.05, A1.06, A1.07, A1.09, A1.10, A1.13, A1.14, A1.15, A1.16, A1.21, A1.23.

Measured: Fungus infestation

CC[C@H](NS(=O)(=O)CC)C(=O)NCCc1ccc(OCCOc2ccccc2)c(OC)c1 [Compound A1.10]
completely inhibit fungal infestation: all assays above

COc1cc(CCNC(=O)[C@@H](NS(C)(=O)=O)C(C)C)ccc1OC/C=C/c1ccccc1F [Compound A2.10]
completely inhibit fungal infestation: all assays above

COc1cc(CCNC(=O)[C@@H](NS(C)(=O)=O)C(C)C)ccc1OC/C=C/c1ccc(Br)cc1 [Compound A2.16]
completely inhibit fungal infestation: all assays above

CCS(=O)(=O)N[C@H](C(=O)NCCc1ccc(OCCOc2ccccc2Cl)c(OC)c1)C(C)C [Compound A1.21]
completely inhibit fungal infestation: all assays above

COc1cc(CCNC(=O)[C@@H](NS(C)(=O)=O)C(C)C)ccc1OCCOc1ccc(Cl)cc1 [Compound A1.14]
completely inhibit fungal infestation: all assays above

CCS(=O)(=O)N[C@H](C(=O)NCCc1ccc(OCCOc2ccc(C)cc2)c(OC)c1)C(C)C [Compound A1.24]
completely inhibit fungal infestation: all assays above

COc1cc(CCNC(=O)[C@@H](NS(C)(=O)=O)C(C)C)ccc1OCCSc1ccc(Cl)cc1 [Compound A1.78]
completely inhibit fungal infestation: all assays above

CC[C@H](NS(=O)(=O)CC)C(=O)NCCc1ccc(OCCOc2ccc(Cl)cc2)c(OC)c1 [Compound A1.15]
completely inhibit fungal infestation: all assays above

COc1cc(CCNC(=O)[C@@H](NS(C)(=O)=O)C(C)C)ccc1OC/C=C/c1ccc(Cl)cc1 [Compound A2.04]
completely inhibit fungal infestation: all assays above

CCS(=O)(=O)N[C@H](C(=O)NCCc1ccc(OCCOc2cccc(F)c2)c(OC)c1)C(C)C [Compound A1.23]
completely inhibit fungal infestation: all assays above

C#CCC(NS(=O)(=O)CC)C(=O)NCCc1ccc(OCC=Cc2ccc(Cl)cc2)c(OC)c1 (racemic) [Compound A1.108]
completely inhibit fungal infestation: all assays above

CCC[C@H](NS(=O)(=O)CC)C(=O)NCCc1ccc(OCCOc2ccc(F)cc2)c(OC)c1 [Compound A1.04]
completely inhibit fungal infestation: all assays above
